Measurements as given in ChEMBL document CHEMBL4339208, “6-Bromoindolglyoxylamido derivatives as antimicrobial agents and antibiotic enhancers” (Bioorg Med Chem, 2019).
≈ marks a conversion by molar mass, not a printed value. Calls of active or inactive are those of the source. The calls are words filed in the database; no cut-off is given here.

Key:
[1] = system: Candida albicans; assay: Antifungal activity against Candida albicans ATCC 90028 measured after 36 hrs; assay type: functional; conditions: ATCC 90028, 36 h
[2] = system: Cryptococcus neoformans; assay: Antifungal activity against Cryptococcus neoformans ATCC 208821 measured after 36 hrs by resazurin dye based assay; assay type: functional; conditions: ATCC 208821, 36 h
[3] = system: Acinetobacter baumannii; assay: Antibacterial activity against Acinetobacter baumannii ATCC 19606 measured after 18 hrs by resazurin dye based assay; assay type: functional
[4] = system: Staphylococcus intermedius; assay: Antibacterial activity against Staphylococcus intermedius 1051997 measured after 18 hrs by broth dilution method; assay type: functional; conditions: Staphylococcus intermedius, 1051997, 18 h
[5] = system: Acinetobacter baumannii; assay: Antibacterial activity against Acinetobacter baumannii ATCC 19606 at 32 ug/ml measured after 18 hrs by resazurin dye based assay; assay type: functional, organism-based; conditions: ATCC 19606 = CIP 70.34 = JCM 6841
[6] = system: Candida albicans; assay: Antifungal activity against Candida albicans ATCC 90028 at 32 ug/ml measured after 36 hrs; assay type: functional, organism-based
[7] = system: Klebsiella pneumoniae; assay: Antibacterial activity against Klebsiella pneumoniae ATCC 700603 measured after 18 hrs by resazurin dye based assay; assay type: functional
[8] = system: Pseudomonas aeruginosa; assay: Potentiation of doxycycline-induced antibacterial activity against Pseudomonas aeruginosa ATCC 27853 assessed as concentration required to restore 2 ug/ml doxycycline activity measured after 18 hrs; assay type: functional
[9] = system: Staphylococcus aureus; assay: Antibacterial activity against Staphylococcus aureus ATCC 25923 measured after 18 hrs by broth dilution method; assay type: functional; conditions: ATCC 25923, 18 h
[10] = system: Pseudomonas aeruginosa; assay: Antibacterial activity against Pseudomonas aeruginosa ATCC 27853 measured after 18 hrs by broth dilution method; assay type: functional
[11] = system: Escherichia coli; assay: Antibacterial activity against Escherichia coli ATCC 25922 measured after 18 hrs by broth dilution method; assay type: functional
[12] = Cytotoxicity against HEK293 cells measured after 20 hrs by resazurin dye based fluorescence assay; assay type: cell-based, Homo sapiens; conditions: human, HEK293 cells
[13] = system: Cryptococcus neoformans; assay: Antifungal activity against Cryptococcus neoformans ATCC 208821 at 32 ug/ml measured after 36 hrs by resazurin dye based assay; assay type: functional, organism-based
[14] = system: Klebsiella pneumoniae; assay: Antibacterial activity against Klebsiella pneumoniae ATCC 700603 at 32 ug/ml measured after 18 hrs by resazurin dye based assay; assay type: functional, organism-based
[15] = system: L6; assay: Cytotoxicity against rat L6 cells measured after 72 hrs by alamar blue assay; assay type: cell-based; conditions: L6, 72 h
[16] = system: Erythrocyte; assay: Hemolytic activity against human RBC incubated for 10 mins under shaking condition measured after 1 hr; assay type: ADME, cell-based
[17] = ATCC 19606 = CIP 70.34 = JCM 6841, 18 h
[18] = Klebsiella pneumoniae, 700603, 18 h

Molecule | MIC [1] | MIC [2] | MIC [3, 17] [µM] | MIC [4] [µM] | Activity [5] | Activity [6] | MIC [7, 18] [µM] | Activity [8] [µM] | MIC [9] [µM] | MIC ([10]; ATCC 27853, 18 h) [µM] | MIC ([11]; ATCC 25922, 18 h) [µM] | CC50 at 20 h [12] [µM] | Activity [13] | Activity [14] | IC50 [15] [µM] | HC10 [16] | MIC ([3]; ATCC 19606 = CIP 70.34 = JCM 6841) [µg/mL] | MIC [7] [µg/mL] | MIC [10] [µM] | MIC [11] [µM]
OC(Cn1cncn1)(Cn1cncn1)c1ccc(F)cc1F [FLUCONAZOLE] | 0.125 µg/mL | 8 µg/mL |  |  |  |  |  |  |  |  |  |  |  |  |  |  |  |  |  | 
O=C(NCCN1CCOCC1)C(=O)c1c[nH]c2cc(Br)ccc12 | > 84 µM | > 84 µM | > 84 | 12.5 (≈ 4.75 µg/mL) | inactive | inactive | > 84 | >200 | > 200 | > 200 | > 200 | > 84 | inactive | inactive | 157 |  |  |  |  | 
O=C(NCCCCNC(=O)C(=O)c1c[nH]c2cc(Br)ccc12)C(=O)c1c[nH]c2cc(Br)ccc12 | > 54 µM | > 54 µM | > 54 | > 200 | inactive | inactive | > 54 | >200 | > 200 | > 200 | > 200 | > 54 | inactive | inactive | > 150 |  |  |  |  | 
O=C(NCCCNCCCCCCCCCCNCCCNC(=O)C(=O)c1c[nH]c2cc(Br)ccc12)C(=O)c1c[nH]c2cc(Br)ccc12.O=C(O)C(F)(F)F.O=C(O)C(F)(F)F | 1.97 µM | < 0.25 µM | 31.5 |  |  |  | 31.5 | 6.16 | 12.3 | 24.6 | 24.6 | 6.03 |  |  | 12.4 | 7.88 µM |  |  |  | 
CN(C)CCNC(=O)C(=O)c1c[nH]c2cc(Br)ccc12 | > 95 µM | > 95 µM | > 95 | 12.5 (≈ 4.23 µg/mL) | inactive | inactive | > 95 | >200 | > 200 | > 200 | > 200 | > 95 | inactive | inactive | 99.5 |  |  |  |  | 
O=C(NCCCNCCCCCCNCCCNC(=O)C(=O)c1c[nH]c2cc(Br)ccc12)C(=O)c1c[nH]c2cc(Br)ccc12.O=C(O)C(F)(F)F.O=C(O)C(F)(F)F | 8.35 µM | 33.4 µM | > 33.4 |  | inactive |  | > 33.4 | 6.52 | 6.5 | > 200 | 52.2 | 17.1 |  | inactive | 5.7 | 18 µM |  |  |  | 
O=C(NCCCCCCCCCCCCNC(=O)C(=O)c1c[nH]c2cc(Br)ccc12)C(=O)c1c[nH]c2cc(Br)ccc12 | > 46 µM | > 46 µM | > 46 | 100 (≈ 70 µg/mL) | inactive | inactive | > 46 | >200 | > 200 | > 200 | > 200 | > 46 | inactive | inactive | 89.1 |  |  |  |  | 
CN[C@@H]1[C@H](O[C@H]2[C@H](O[C@H]3[C@H](O)[C@@H](O)[C@H](N=C(N)N)[C@@H](O)[C@@H]3N=C(N)N)O[C@@H](C)[C@]2(O)C=O)O[C@@H](CO)[C@H](O)[C@H]1O [STREPTOMYCIN] |  |  |  | 10.7 (≈ 6.22 µg/mL) |  |  |  |  | 21.5 (≈ 12.5 µg/mL) | 21.5 (≈ 12.5 µg/mL) | 21.5 (≈ 12.5 µg/mL) |  |  |  |  |  |  |  |  | 
CC[C@H](C)[C@H](NC(=O)CN)C(=O)NCC(=O)N[C@@H](C)C(=O)N[C@H](C(=O)N[C@@H](CC(C)C)C(=O)N[C@@H](CCCCN)C(=O)N[C@H](C(=O)N[C@@H](CC(C)C)C(=O)N[C@H](C(=O)N[C@H](C(=O)NCC(=O)N[C@@H](CC(C)C)C(=O)N1CCC[C@H]1C(=O)N[C@@H](C)C(=O)N[C@@H](CC(C)C)C(=O)N[C@H](C(=O)N[C@@H](CO)C(=O)N[C@@H](Cc1c[nH]c2ccccc12)C(=O)N[C@H](C(=O)N[C@@H](CCCCN)C(=O)N[C@@H](CCCNC(=N)N)C(=O)N[C@@H](CCCCN)C(=O)N[C@@H](CCCNC(=N)N)C(=O)N[C@@H](CCC(N)=O)C(=O)N[C@@H](CCC(N)=O)C(N)=O)[C@@H](C)CC)[C@@H](C)CC)[C@@H](C)O)[C@@H](C)O)C(C)C)C(C)C [MELITTIN] |  |  |  |  |  |  |  |  |  |  |  |  |  |  |  | 2.7 µg/mL |  |  |  | 
O=C(NCCCNCCNC(=O)C(=O)c1c[nH]c2cc(Br)ccc12)C(=O)c1c[nH]c2cc(Br)ccc12 | > 52 µM | > 52 µM | > 52 | 50 (≈ 30.9 µg/mL) | inactive | inactive | > 52 | >200 | 12.5 (≈ 7.72 µg/mL) | > 200 | > 200 | > 52 | inactive | inactive | 89.3 |  |  |  |  | 
COLISTIN |  |  |  |  |  |  |  |  |  |  |  |  |  |  |  |  | 0.25 | 0.25 | 2 | 1
O=C(NCCCNCCCCCCCCCCCCNCCCNC(=O)C(=O)c1c[nH]c2cc(Br)ccc12)C(=O)c1c[nH]c2cc(Br)ccc12.O=C(O)C(F)(F)F.O=C(O)C(F)(F)F | 7.67 µM | 7.67 µM | > 32 |  | inactive |  | > 32 | >200 | > 200 | > 200 | > 200 | 9.72 |  | inactive | 1.6 | 2.18 µM |  |  |  | 
